Numbering of substitutions follows the chain as printed.

The target in test [1] is T1, Nluc-A1R (adenosine A1 receptor) (Homo sapiens, UniProt P30542).
T1 sequence (P30542 1-326): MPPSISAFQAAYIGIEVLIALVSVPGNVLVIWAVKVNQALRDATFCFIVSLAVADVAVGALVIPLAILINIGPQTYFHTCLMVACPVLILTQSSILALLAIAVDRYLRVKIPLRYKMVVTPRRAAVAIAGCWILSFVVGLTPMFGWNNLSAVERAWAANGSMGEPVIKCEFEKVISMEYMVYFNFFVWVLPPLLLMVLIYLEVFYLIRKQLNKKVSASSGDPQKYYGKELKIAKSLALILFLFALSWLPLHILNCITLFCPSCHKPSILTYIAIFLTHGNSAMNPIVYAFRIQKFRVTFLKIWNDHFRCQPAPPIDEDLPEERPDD
Put plainly: NanoBRET competition binding, live HEK […] cells. The format is cell-based. For orientation: Bioluminescence resonance energy transfer reports proximity on the nanometre scale.

Test [2] deals with T2, Nluc-A1R (adenosine A1 receptor) (Homo sapiens, UniProt P30542, L253A).
T2 sequence (P30542 1-326 L253A): T1 sequence (P30542 1-326) with L253A
Put plainly: NanoBRET competition binding, live HEK […] cells. The format is cell-based.

Test [3] deals with T3, Nluc-A1R (adenosine A1 receptor) (Homo sapiens, UniProt P30542, Y271A).
T3 sequence (P30542 1-326 Y271A): T1 sequence (P30542 1-326) with Y271A
Put plainly: NanoBRET competition binding, live HEK […] cells. Format: cell-based.

Test [4] concerns the target T4, Nluc-A1R (adenosine A1 receptor) H264A (Homo sapiens, UniProt P30542, H264A).
T4 sequence (P30542 1-326 H264A): T1 sequence (P30542 1-326) with H264A
Put plainly: cell-based. On the set-up: species or system HEK 293.

The target of test [5] is T5, Nluc-A1R (adenosine A1 receptor) N70A (Homo sapiens, UniProt P30542, N70A).
T5 sequence (P30542 1-326 N70A): T1 sequence (P30542 1-326) with N70A
Put plainly: cell-based. On the set-up: species or system HEK 293.

Test [6] concerns the target T6, Nluc-A1R (adenosine A1 receptor) Y12A (Homo sapiens, UniProt P30542, Y12A).
T6 sequence (P30542 1-326 Y12A): T1 sequence (P30542 1-326) with Y12A
Put plainly: cell-based. On the set-up: species or system HEK 293.

Test [7] addresses T7, Nluc-A1R (adenosine A1 receptor) L253F (Homo sapiens, UniProt P30542, L253F).
T7 sequence (P30542 1-326 L253F): T1 sequence (P30542 1-326) with L253F
Put plainly: cell-based. On the set-up: species or system HEK 293.

As a reminder, the Ki is the equilibrium dissociation constant of an inhibitor or competing ligand from its target. A lower Ki goes with a stronger hold on the target. For the compound `OC[C@H]1O[C@@H](n2cnc3c(N[C@@H]4CCC[C@H]4O)ncnc32)[C@H](O)[C@@H]1O` [compound 6, HOCPA], the Ki in test [1] was 0.427 µM; in test [2] it was 3.24 µM; in test [3] it was 7.08 µM; in test [4], 0.955 µM; in test [5], 0.891 µM; in test [6] it was 1.66 µM. In test [7], this compound showed a Ki of 1.62 µM.

Values taken from publication doi:10.1101/2020.10.22.350827v1 (biorxiv, 2020).
